≈ marks a conversion by molar mass, not a printed value. Entries after “also recorded” stand apart in the source; their conditions may differ. Where two headings read alike, the source gives them in different places.
How the values were obtained:
adenosine deaminase = conditions: human plasma; cited from earlier work
[1] = system: herpes simplex virus Type I (HSV I); test: Inhibition of virus replication (plaque assay, BHK-21 cells); type: cell-based, Type 1, Troisbel strain; conditions: for Inhibition of viral replication (in words): up to 100 mg/l; for Viral titre (inhibition of replication): control 9.0 × 10^8
Protocol: 1. Mono-layers of baby hamster kidney cells (BHK-21) are prepared in Petri dishes containing ETC medium (Eagle's minimal essential medium +10% tryptose phosphate broth +10% new born calf serum).
2. After incubation the medium is poured off to leave the layer of cells attached to the Petri dish. A solution containing virus, specifically herpes simplex virus Type I (HSV I) for example, in ETC medium is then added to the dish and incubated with intermittent rocking for one hour to allow the virus to adsorb to the cells of the mono-layer. Unadsorbed virus is then removed by pouring off the virus-containing medium and washing twice with new sterile medium. Then new medium is added to each Petri dish. At this stage various concentrations of drug can be added to the medium.
3. […] First the dishes are frozen to -70° C. and thawed to disrupt the mono-layer and break up the cells. Then the medium and the disrupted cells are transferred to bijou bottles and sonicated to break down the cells completely and to release all the virus particles the cells contain. The sonicated medium is then diluted with fresh sterile ETC medium to give concentrations of the original Petri dish fluid of 10^-2, 10^-4, 10^-6 and 10^-8.
4. The number of virus particles (plaque forming units) in the dilutions is then assayed. A standard number of BHK cells (usually 8×10^6) is added to 2 ml of the diluted solutions and incubated for one hour, with cautious, gentle shaking, and 8 ml of Eagle's minimal essential medium +2% new born calf serum + carboxymethyl cellulose is then added to the cell suspension. This medium has gelling properties which prevent spreading of the virus through the medium and which encourage the formation of discrete plaques in cell mono-layers. The medium from each dilution is then dispensed into Petri dishes and incubated for two to three days.
5. The number of plaques formed is then counted and the amount of active virus expressed as the number of plaque forming units (pfus) as follows. The medium is poured off and the cell mono-layer is fixed using 10% formol saline and stained with dilute carbol fuchsin. The number of plaques in each Petri dish is counted. Based on the dilutions, the number of plaque forming virus particles in the original solutions is calculated.
In the Table, the figures are the concentration of viral particles in pfu/ml present in the cells + medium at the end of the replication stage (3).

[2] = system: herpes simplex virus Type I; test: Inactivation of virus (30 minutes incubation, plaque assay); type: cell-based, Type 1, Troisbel strain; conditions: for Inactivation of virus (in words): up to 50 mg/l; for Virus titre (inactivation of virus): 30 minutes, control 5.4 × 10^4 (GLA-alcohol), 4.5 × 10^4 (GLA-AZT)
Protocol: 1. A virus solution containing 2×10^5 pfu/ml is prepared in phosphate buffered saline (Dulbecco's A).
2. The compound to be tested is made up in Dulbecco's medium A in a suitable range of dilutions.
3. Equal volumes of the virus and drug solution are mixed together. Control solutions without drug are also used.
4. The virus and drug are incubated for an appropriate period of time, in this example, thirty minutes.
5. The numbers of active viral particles in the solution are assayed as in items 4 and 5 under A.
The results are shown below (Table 6). In the Table, the figures are concentrations of viral particles present after incubation of the virus for 30 minutes with solutions of the drugs.

HTLV-IIIB = test: Anti-HIV activity assay, HTLV-IIIB (MT-4 cells, MTT method); type: cell-based; conditions: for Selectivity index (SI): CD50/ED50, HTLV-IIIB; for EC50: Human immunodeficiency virus 1, MT4, 120 h, MT-4 cells, five days, HTLV-IIIB, read-out: ED50 (50% effective dose)
Protocol: (§1) Results in relation to HIV virus were obtained by the method of Pauwels et al, Journal of Virological Methods 20, 309 to 321 (1988), as follows:
(§2) MT-4 cells (2.5×10^4 /well) were infected with HIV (100 CCID50) and incubated in the presence of varying concentrations of the test compounds (added immediately after virus infection). After five days incubation at 37° C. in a CO2 incubator, the number of viable cells was assessed by the MTT (tetrazolium) method. Anti-viral activity and cytotoxicity of the compounds are expressed as ED50 (50% effective dose) and CD50 (50% cytotoxic dose), respectively. SI (selectivity index=CD50 /ED50.
(§3) These are given in Table 8 and Table 9 below in relation to HTLV-IIIB and LAV-2ROD viruses.

LAV-2ROD = test: Anti-HIV activity assay, LAV-2ROD (MT-4 cells, MTT method); type: cell-based; conditions: for Selectivity index (SI): CD50/ED50, LAV-2ROD; for EC50: MT4, 120 h, read-out: ED50 (50% effective dose)
Protocol: as §1, §2, §3

in vitro = type: cell-based; conditions: human, mt-4 cells, CD50 (50% cytotoxic dose)
Protocol: as §1, §2

MT-4 cells = test: in vitro; type: cell-based; conditions: human, 120 h
Protocol: as §1, §2

[3] = system: herpes simplex virus Type I (HSV I); conditions: cited from earlier work
[4] = system: herpes simplex virus Type I; conditions: known, e.g. E. de Klerk et al 1980; cited from earlier work
viral polymerases = conditions: tested lacking the phosphate groups; cited from earlier work
[5] = cited from earlier work
herpes simplex = test: Topical application to herpetic lesion; type: in vivo, human; conditions: ointment or cream 2% by weight, 1 to 5 mg/cm^2 three times daily for one week; after three days
Protocol: Example (6) Ointment or cream for topical administration against herpes simplex, containing 2% by weight GLA-AZT. It may be applied to a human afflicted with a herpetic lesion at the afflicted sites at a rate of 1 to 5 mg/cm^2 three times daily for a period of one week.

Absolute solubilities = type: physicochemical
[6] = MT-4 cells, five days, LAV-2ROD

SMILES | Inhibition of viral replication (in words) [1] | Virucidal activity / inactivation of herpes virus (in words) [2] | Inactivation of virus (in words) [2] | Selectivity index (SI) (HTLV-IIIB) | EC50 (HTLV-IIIB) | Selectivity index (SI) (LAV-2ROD) | EC50 (LAV-2ROD; [6]) | CC50 at 120 h (in vitro) | CD50 (50% cytotoxic dose) (MT-4 cells) | % in chloroform phase (partition co-efficients, water/chloroform) | Activity against viral polymerases (in words) (viral polymerases) | also measured
Nc1ncnc2c1ncn2[C@H]1CC[C@@H](CO)O1 [ddA] | – | – | – | – | – | – | – | – | – | – | – | Conversion of ddA to ddI (adenosine deaminase): within minutes
Cc1cn([C@H]2C[C@H](N=[N+]=[N-])[C@@H](CO)O2)c(=O)[nH]c1=O [AK 7, zidovudine, reference compound] | No inhibition | no effect | no inactivation | 4131 | 0.000372 µg/mL (≈ 0.00139 µM) | 2928 | 0.00053 µg/mL (≈ 0.00198 µM) | 1.54 µg/mL (≈ 5.75 µM) | 1.5633 µg/mL | 15% | inactive | Inhibition of herpes virus replication (in words) ([1]; listed as AZT): no effect; also recorded: not found; Activity against herpes viruses (in words) ([3]; herpes zoster and herpes simplex): inactive; Effect on replication of herpes simplex virus (in words) ([3]; known, e.g. E. de Klerk et al 1980): no effect; Effect on inactivation of herpes simplex virus (in words) [4]: no effect; Excreted unchanged into the urine ([5]; in vivo): Fifteen to twenty; Metabolised by hepatic glucuronidation ([5]; to 3'-azido-2'-3'-dideoxy-5'-glucuronyl thymidine): seventy five
CCCCC/C=C\C/C=C\C/C=C\CCCCC(=O)OC[C@H]1O[C@@H](n2cc(C)c(=O)[nH]c2=O)C[C@@H]1N=[N+]=[N-] [AK 1, GLA - 3'azido-3'-deoxythymidine] | no inhibition | virucidal | – | 7993 | 0.000754 µg/mL (≈ 0.00143 µM) | 9770 | 0.000858 µg/mL (≈ 0.00163 µM) | 6.03 µg/mL (≈ 11.4 µM) | 8.3825 µg/mL | > 99% | – | Viral titre (inhibition of replication) ([1]; 25 μg/ml (47.5 × 10^-6 molar)): 1.02 × 10^8 pfu/ml; Viral titre (inhibition of replication) ([1]; 50 μg/ml (95.0 × 10^-6 molar)): < 1.0 × 10^2 pfu/ml; Inhibition of herpes virus replication (in words) ([1]; listed as AZT-GLA): to inhibit its replication; Inhibition of herpes virus replication (in words) ([1]; listed as GLA-AZT): able to inhibit viral replication effectively; also recorded: gains the property of inhibiting herpes virus replication; Virus titre (inactivation of virus) ([2]; 5 μg/ml): 2.7 × 10^3; Virus titre (inactivation of virus) ([2]; 25 μg/ml): < 1.0 × 10^2; log reduction at 1 µg/mL ([2]; Human alphaherpesvirus 1, 0.5 h, 1 mg/l, read-out: Inactivation of virus (log10 reduction in virus titre)): 1; log reduction at 5 µg/mL ([2]; Human alphaherpesvirus 1, 0.5 h, 5 mg/l, read-out: Inactivation of virus (log10 reduction in virus titre)): 2; Virucidal activity / inactivation of herpes virus (in words) ([2]; listed as AZT-GLA): able both to inactivate the herpes virus; Virucidal activity / inactivation of herpes virus (in words) ([2]; listed as GLA-AZT): more effective; Reduction in the size of the lesion (herpes simplex): Reduction in the size of the lesion is noted
Nc1nc2c(ncn2COCCO)c(=O)[nH]1 [AK 9, Acyclovir, reference compound] | – | – | no inactivation | < 1 | > 1000 µg/mL | < 1 | – | 300 µg/mL (≈ 1330 µM) | 397.5805 µg/mL | 1% | inactive | solubility (Absolute solubilities; chloroform, organic solvent or mixture, CHCl3 98 to 99% pure, with 1% balance ethanol to stabilise, read-out: Absolute solubility in CHCl3): 6 µg/mL (≈ 26.6 µM); solubility (Absolute solubilities; in water, read-out: Absolute solubility in water): 1590 µg/mL (≈ 7060 µM); log reduction at 0.1 µg/mL ([1]; Human alphaherpesvirus 1, BHK-21, 24 h, 0.1 mg/l, read-out: Inhibition of viral replication (log10 reduction in virus titre)): 2; log reduction at 0.5 µg/mL ([1]; Human alphaherpesvirus 1, BHK-21, 24 h, 0.5 mg/l, read-out: Inhibition of viral replication (log10 reduction in virus titre)): 2.3; EC50 (LAV-2ROD): > 10000 µg/mL

Source: patent US5216142A, “Anti-virals” (Efamol Holdings plc, priority 1989, dated 1993)
